{"source": "PubChem BioAssay AID1963967", "about": "(Molecular Pharmacology Branch, DTP, NCI, 2024)", "system": "855422-203-R-J1-PDC spheroids with HUVEC/MSC, viability", "assay": "Anticancer human tumor 855422-203-R-J1-PDC patient-derived bladder carcinoma cell line growth inhibition [PI3K]", "details": "for viability, T/C: stronger effect = lower value", "procedure,_shortened": "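We assembled tumor spheroids that included a stromal compartment of HUVEC and MSCs, then exposed them to targeted agents alone and together with PI3K pathway inhibitors. Concentration series descended by half-log from clinically achievable Cmax levels. Viability served as the endpoint.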", "key": {"[1]": {"details": "curve of first compound, second compound 0.0316 µM"}, "[2]": {"details": "curve of first compound, second compound 0.1 µM"}, "[3]": {"details": "curve of first compound, second compound 0.316 µM"}, "[4]": {"details": "curve of first compound, second compound 1 µM"}, "[5]": {"details": "second compound 0.0316 µM, first compound 0.0316 µM"}, "[6]": {"details": "second compound 0.0316 µM, first compound 0.1 µM"}, "[7]": {"details": "second compound 0.0316 µM, first compound 0.316 µM"}, "[8]": {"details": "second compound 0.0316 µM, first compound 1 µM"}, "[9]": {"details": "second compound 0.0316 µM, first compound 3.16 µM"}, "[10]": {"details": "second compound 0.0316 µM, first compound 10 µM"}, "[11]": {"details": "second compound 0.1 µM, first compound 0.0316 µM"}, "[12]": {"details": "second compound 0.1 µM, first compound 0.1 µM"}, "[13]": {"details": "second compound 0.1 µM, first compound 0.316 µM"}, "[14]": {"details": "second compound 0.1 µM, first compound 1 µM"}, "[15]": {"details": "second compound 0.1 µM, first compound 3.16 µM"}, "[16]": {"details": "second compound 0.1 µM, first compound 10 µM"}, "[17]": {"details": "second compound 0.316 µM, first compound 0.0316 µM"}, "[18]": {"details": "second compound 0.316 µM, first compound 0.1 µM"}, "[19]": {"details": "second compound 0.316 µM, first compound 0.316 µM"}, "[20]": {"details": "second compound 0.316 µM, first compound 1 µM"}, "[21]": {"details": "second compound 0.316 µM, first compound 3.16 µM"}, "[22]": {"details": "second compound 0.316 µM, first compound 10 µM"}, "[23]": {"details": "second compound 1 µM, first compound 0.0316 µM"}, "[24]": {"details": "second compound 1 µM, first compound 0.1 µM"}, "[25]": {"details": "second compound 1 µM, first compound 0.316 µM"}, "[26]": {"details": "second compound 1 µM, first compound 1 µM"}, "[27]": {"details": "second compound 1 µM, first compound 3.16 µM"}, "[28]": {"details": "second compound 1 µM, first compound 10 µM"}}, "note": "pIC50: −log10 of the molar value.", "data": [{"molecule": "C#Cc1c(F)ccc2cc(O)cc(-c3ncc4c(N5CC6CCC(C5)N6)nc(OCC56CCCN5CC(F)C6)nc4c3F)c12", "note": "(stereo not given) + COc1c(OCCCN2CCOCC2)ccc2c3n(c(=NC(=O)c4cnc(N)nc4)nc12)CCN3;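 also: agents incubated with spheroids for one week before read-out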;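 as to viability, T/C: 100% = DMSO vehicle-treated control wells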", "values": [{"measurement": "pIC50", "setting": "curve of first compound, second compound 0.00316 µM", "result": "< 5.00"}, {"measurement": "pIC50", "setting": "curve of first compound, second compound 0.01 µM", "result": "< 5.00"}, {"measurement": "pIC50", "setting": "[1]", "result": "< 5.00"}, {"measurement": "pIC50", "setting": "[2]", "result": "> 7.50"}, {"measurement": "pIC50", "setting": "[3]", "result": "> 7.50"}, {"measurement": "pIC50", "setting": "[4]", "result": "> 7.50"}, {"measurement": "viability, T/C", "setting": "second compound 0.00316 µM, first compound 0.0316 µM", "result": 103, "unit": "%"}, {"measurement": "viability, T/C", "setting": "second compound 0.00316 µM, first compound 0.1 µM", "result": 86.9, "unit": "%"}, {"measurement": "viability, T/C", "setting": "second compound 0.00316 µM, first compound 0.316 µM", "result": 105, "unit": "%"}, {"measurement": "viability, T/C", "setting": "second compound 0.00316 µM, first compound 1 µM", "result": 101, "unit": "%"}, {"measurement": "viability, T/C", "setting": "second compound 0.00316 µM, first compound 3.16 µM", "result": 103, "unit": "%"}, {"measurement": "viability, T/C", "setting": "second compound 0.00316 µM, first compound 10 µM", "result": 107, "unit": "%"}, {"measurement": "viability, T/C", "setting": "second compound 0.01 µM, first compound 0.0316 µM", "result": 97.7, "unit": "%"}, {"measurement": "viability, T/C", "setting": "second compound 0.01 µM, first compound 0.1 µM", "result": 90.9, "unit": "%"}, {"measurement": "viability, T/C", "setting": "second compound 0.01 µM, first compound 0.316 µM", "result": 83.3, "unit": "%"}, {"measurement": "viability, T/C", "setting": "second compound 0.01 µM, first compound 1 µM", "result": 91, "unit": "%"}, {"measurement": "viability, T/C", "setting": "second compound 0.01 µM, first compound 3.16 µM", "result": 92.8, "unit": "%"}, {"measurement": "viability, T/C", "setting": "second compound 0.01 µM, first compound 10 µM", "result": 105, "unit": "%"}, {"measurement": "viability, T/C", "setting": "[5]", "result": 57.6, "unit": "%"}, {"measurement": "viability, T/C", "setting": "[6]", "result": 65.4, "unit": "%"}, {"measurement": "viability, T/C", "setting": "[7]", "result": 62.7, "unit": "%"}, {"measurement": "viability, T/C", "setting": "[8]", "result": 60, "unit": "%"}, {"measurement": "viability, T/C", "setting": "[9]", "result": 59.5, "unit": "%"}, {"measurement": "viability, T/C", "setting": "[10]", "result": 50.4, "unit": "%"}, {"measurement": "viability, T/C", "setting": "[11]", "result": 25.9, "unit": "%"}, {"measurement": "viability, T/C", "setting": "[12]", "result": 26.7, "unit": "%"}, {"measurement": "viability, T/C", "setting": "[13]", "result": 26.5, "unit": "%"}, {"measurement": "viability, T/C", "setting": "[14]", "result": 24.8, "unit": "%"}, {"measurement": "viability, T/C", "setting": "[15]", "result": 23.8, "unit": "%"}, {"measurement": "viability, T/C", "setting": "[16]", "result": 20.4, "unit": "%"}, {"measurement": "viability, T/C", "setting": "[17]", "result": 10.8, "unit": "%"}, {"measurement": "viability, T/C", "setting": "[18]", "result": 8.21, "unit": "%"}, {"measurement": "viability, T/C", "setting": "[19]", "result": 9.76, "unit": "%"}, {"measurement": "viability, T/C", "setting": "[20]", "result": 7.21, "unit": "%"}, {"measurement": "viability, T/C", "setting": "[21]", "result": 6.7, "unit": "%"}, {"measurement": "viability, T/C", "setting": "[22]", "result": 3.41, "unit": "%"}, {"measurement": "viability, T/C", "setting": "[23]", "result": 3.53, "unit": "%"}, {"measurement": "viability, T/C", "setting": "[24]", "result": 3.24, "unit": "%"}, {"measurement": "viability, T/C", "setting": "[25]", "result": 3.78, "unit": "%"}, {"measurement": "viability, T/C", "setting": "[26]", "result": 2.64, "unit": "%"}, {"measurement": "viability, T/C", "setting": "[27]", "result": 2.16, "unit": "%"}, {"measurement": "viability, T/C", "setting": "[28]", "result": 0.32, "unit": "%"}]}, {"molecule": "CC1(C)CCC(CN2CCN(c3ccc(C(=O)NS(=O)(=O)c4ccc(NCC5CCOCC5)c([N+](=O)[O-])c4)c(Oc4cnc5[nH]ccc5c4)c3)CC2)=C(c2ccc(Cl)cc2)C1", "note": "+ Cc1nc(NC(=O)N2CCCC2C(N)=O)sc1-c1ccnc(C(C)(C)C(F)(F)F)c1", "values": [{"measurement": "pIC50", "setting": "[1]", "result": 5.34}, {"measurement": "pIC50", "setting": "[2]", "result": 5.31}, {"measurement": "pIC50", "setting": "[3]", "result": 5.28}, {"measurement": "pIC50", "setting": "[4]", "result": 5.34}, {"measurement": "pIC50", "setting": "curve of first compound, second compound 3.16 µM", "result": "> 7.50"}, {"measurement": "pIC50", "setting": "curve of first compound, second compound 10 µM", "result": "> 7.50"}, {"measurement": "viability, T/C", "setting": "[5]", "result": 105, "unit": "%"}, {"measurement": "viability, T/C", "setting": "[6]", "result": 89.9, "unit": "%"}, {"measurement": "viability, T/C", "setting": "[7]", "result": 112, "unit": "%"}, {"measurement": "viability, T/C", "setting": "[8]", "result": 100, "unit": "%"}, {"measurement": "viability, T/C", "setting": "[9]", "result": 72.8, "unit": "%"}, {"measurement": "viability, T/C", "setting": "[10]", "result": 1.55, "unit": "%"}, {"measurement": "viability, T/C", "setting": "[11]", "result": 99.8, "unit": "%"}, {"measurement": "viability, T/C", "setting": "[12]", "result": 87.4, "unit": "%"}, {"measurement": "viability, T/C", "setting": "[13]", "result": 101, "unit": "%"}, {"measurement": "viability, T/C", "setting": "[14]", "result": 102, "unit": "%"}, {"measurement": "viability, T/C", "setting": "[15]", "result": 80.6, "unit": "%"}, {"measurement": "viability, T/C", "setting": "[16]", "result": 1.52, "unit": "%"}, {"measurement": "viability, T/C", "setting": "[17]", "result": 89.8, "unit": "%"}, {"measurement": "viability, T/C", "setting": "[18]", "result": 91.8, "unit": "%"}, {"measurement": "viability, T/C", "setting": "[19]", "result": 95.3, "unit": "%"}, {"measurement": "viability, T/C", "setting": "[20]", "result": 92.1, "unit": "%"}, {"measurement": "viability, T/C", "setting": "[21]", "result": 88.6, "unit": "%"}, {"measurement": "viability, T/C", "setting": "[22]", "result": 1.39, "unit": "%"}, {"measurement": "viability, T/C", "setting": "[23]", "result": 76.8, "unit": "%"}, {"measurement": "viability, T/C", "setting": "[24]", "result": 77, "unit": "%"}, {"measurement": "viability, T/C", "setting": "[25]", "result": 69.5, "unit": "%"}, {"measurement": "viability, T/C", "setting": "[26]", "result": 81, "unit": "%"}, {"measurement": "viability, T/C", "setting": "[27]", "result": 73.3, "unit": "%"}, {"measurement": "viability, T/C", "setting": "[28]", "result": 0.91, "unit": "%"}, {"measurement": "viability, T/C", "setting": "second compound 3.16 µM, first compound 0.0316 µM", "result": 47.7, "unit": "%"}, {"measurement": "viability, T/C", "setting": "second compound 3.16 µM, first compound 0.1 µM", "result": 45.5, "unit": "%"}, {"measurement": "viability, T/C", "setting": "second compound 3.16 µM, first compound 0.316 µM", "result": 42.7, "unit": "%"}, {"measurement": "viability, T/C", "setting": "second compound 3.16 µM, first compound 1 µM", "result": 49, "unit": "%"}, {"measurement": "viability, T/C", "setting": "second compound 3.16 µM, first compound 3.16 µM", "result": 47, "unit": "%"}, {"measurement": "viability, T/C", "setting": "second compound 3.16 µM, first compound 10 µM", "result": 0.59, "unit": "%"}, {"measurement": "viability, T/C", "setting": "second compound 10 µM, first compound 0.0316 µM", "result": 25.8, "unit": "%"}, {"measurement": "viability, T/C", "setting": "second compound 10 µM, first compound 0.1 µM", "result": 23.5, "unit": "%"}, {"measurement": "viability, T/C", "setting": "second compound 10 µM, first compound 0.316 µM", "result": 25.7, "unit": "%"}, {"measurement": "viability, T/C", "setting": "second compound 10 µM, first compound 1 µM", "result": 29.4, "unit": "%"}, {"measurement": "viability, T/C", "setting": "second compound 10 µM, first compound 3.16 µM", "result": 24.7, "unit": "%"}, {"measurement": "viability, T/C", "setting": "second compound 10 µM, first compound 10 µM", "result": 0.6, "unit": "%"}]}, {"molecule": "C[C@@H](NC(=O)c1ncnc(N)c1Cl)c1ncc(C(=O)Nc2cc(C(F)(F)F)c(Cl)cn2)s1", "values": [{"measurement": "viability, T/C", "setting": "compound 0.0316 µM", "result": "107% [middle of 4 runs]"}, {"measurement": "viability, T/C", "setting": "compound 0.1 µM", "result": "99.5% [middle of 4 runs]"}, {"measurement": "viability, T/C", "setting": "compound 0.316 µM", "result": "118% [middle of 4 runs]"}, {"measurement": "viability, T/C", "setting": "compound 3.16 µM", "result": "122% [middle of 4 runs]"}, {"measurement": "viability, T/C", "setting": "compound 10 µM", "result": "120% [middle of 4 runs]"}, {"measurement": "pIC50", "setting": "curve of compound", "result": "< 5.00"}]}]}
